From ChEMBL document CHEMBL1148467, “Benzoxazinones as PPARgamma agonists. 2. SAR of the amide substituent and in vivo results in a type 2 diabetes model” (J Med Chem, 2004)

Experiments:
[1] = target: T1, Peroxisome proliferator-activated receptor gamma (Homo sapiens, UniProt P37231)
T1 sequence (P37231 whole entry): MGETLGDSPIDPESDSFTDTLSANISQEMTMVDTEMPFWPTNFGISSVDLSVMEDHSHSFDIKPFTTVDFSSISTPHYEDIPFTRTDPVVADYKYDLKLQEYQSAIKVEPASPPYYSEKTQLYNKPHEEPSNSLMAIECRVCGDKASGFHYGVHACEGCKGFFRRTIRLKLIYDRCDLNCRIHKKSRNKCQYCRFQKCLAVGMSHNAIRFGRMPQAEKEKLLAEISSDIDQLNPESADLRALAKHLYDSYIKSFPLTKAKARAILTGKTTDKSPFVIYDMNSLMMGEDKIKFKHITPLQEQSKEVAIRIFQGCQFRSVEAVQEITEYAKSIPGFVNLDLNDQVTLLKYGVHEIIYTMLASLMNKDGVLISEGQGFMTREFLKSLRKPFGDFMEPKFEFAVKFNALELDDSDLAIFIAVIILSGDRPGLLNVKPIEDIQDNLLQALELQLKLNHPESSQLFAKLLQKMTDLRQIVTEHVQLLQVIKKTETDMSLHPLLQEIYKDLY
Description: Agonistic activity against PPAR (peroxisome proliferator activated receptor gamma) in Suarus chinesis

[2] = In vitro metabolic stability at 5 uM was determined by incubating with human liver microsomes at 37 degree C; format: ADME, Microsome
[3] = Half-life in rat at 30 mg/kg dose administered orally; settings: in vivo, po
[4] = Oral bioavailability in rat (dose 30 mg/kg); format: ADME, organism-based; settings: in vivo
[5] = Area under curve was evaluated in rat at 3 mg/kg dose administered intravenously; format: ADME, organism-based; parameters: dose 3 mg/kg, route intravenous; settings: in vivo, iv
[6] = Area under curve was evaluated in rat at 30 mg/kg dose administered orally; settings: in vivo, po

Structure (SMILES)	EC50 [1] [nM]	further results
CC(C)(O)CCCCN1C(=O)C(CCOc2ccccc2CC(=O)O)Oc2ccccc21 (centres undefined)	644	–
CC(C)CN1C(=O)C(CCOc2ccccc2CC(=O)O)Oc2ccccc21 (centres undefined)	~5000	–
CC(C)(CCCCN1C(=O)C(CCOc2ccccc2CC(=O)O)Oc2ccccc21)C(=O)O (centres undefined)	1000	–
CC(F)(F)CCCCN1C(=O)[C@@H](CCOc2ccccc2CC(=O)O)Oc2ccccc21	295	–
CCCSCCN1C(=O)C(CCOc2ccccc2CC(=O)O)Oc2ccccc21 (centres undefined)	380	–
CCCCCCN1C(=O)[C@H](CCOc2ccccc2CC(=O)O)Oc2ccccc21	1200	–
O=C(O)CCCCCN1C(=O)C(CCOc2ccccc2CC(=O)O)Oc2ccccc21 (centres undefined)	> 5000	–
O=C(O)Cc1ccccc1OCCC1Oc2ccccc2N(CCC2CCCC2)C1=O (centres undefined)	~5000	–
CC(C)(C)CCCCN1C(=O)C(CCOc2ccccc2CC(=O)O)Oc2ccccc21 (centres undefined)	1000	–
CC(O)CCCCN1C(=O)C(CCOc2ccccc2CC(=O)O)Oc2ccccc21 (centres undefined)	1000	–
CCCCN1C(=O)C(CCOc2ccccc2CC(=O)O)Oc2ccccc21 (centres undefined)	~5000	–
CN1C(=O)C(CCOc2ccccc2CC(=O)O)Oc2ccccc21 (centres undefined)	> 5000	–
CCOCCCN1C(=O)C(CCOc2ccccc2CC(=O)O)Oc2ccccc21 (centres undefined)	~5000	–
O=C(O)Cc1ccccc1OCCC1Oc2ccccc2N(CCCCCCCO)C1=O (centres undefined)	149	half-life at 5 µM [2]: 1.27 h; half-life [3]: 7 h; bioavailability [4]: 13%; AUC [5]: 2.3 µM·h
O=C(O)Cc1ccccc1OCCC1Oc2ccccc2N(CC(=O)O)C1=O (centres undefined)	> 5000	–
CC(F)(F)CCCCCN1C(=O)C(CCOc2ccccc2CC(=O)O)Oc2ccccc21 (centres undefined)	534	–
O=C(O)Cc1ccccc1OCCC1Oc2ccccc2N(CCCC2CCCC2)C1=O (centres undefined)	2700	–
CS(=O)(=O)NCCCCCCN1C(=O)C(CCOc2ccccc2CC(=O)O)Oc2ccccc21 (centres undefined)	> 5000	–
CC(F)(F)CCCCN1C(=O)[C@H](CCOc2ccccc2CC(=O)O)Oc2ccccc21	1000	–
O=C(O)Cc1ccccc1OCCC1Oc2ccccc2N(CCO)C1=O (centres undefined)	> 5000	–
O=C(O)Cc1ccccc1OCCC1Oc2ccccc2N(CCC2CCCCC2)C1=O (centres undefined)	300	–
CC(=O)NCCCCCCN1C(=O)C(CCOc2ccccc2CC(=O)O)Oc2ccccc21 (centres undefined)	> 5000	–
CCCNC(=O)CN1C(=O)C(CCOc2ccccc2CC(=O)O)Oc2ccccc21 (centres undefined)	> 5000	–
O=C(O)Cc1ccccc1OCC[C@H]1Oc2ccccc2N(CCCCCCF)C1=O	152	half-life at 5 µM [2]: 1.85 h; half-life [3]: 7.9 h; bioavailability [4]: 39%; AUC [5]: 93 µM·h
CC(=O)CCCCN1C(=O)C(CCOc2ccccc2CC(=O)O)Oc2ccccc21 (centres undefined)	260	half-life at 5 µM [2]: 0.85 h; half-life [3]: 9.8 h; bioavailability [4]: 27%; AUC [5]: 5.8 µM·h
CC(F)(F)CCCCN1C(=O)C(CCOc2ccccc2CC(=O)O)Oc2ccccc21 (centres undefined)	179	–
O=C(O)Cc1ccccc1OCCC1Oc2ccccc2N(CCCCCCO)C1=O (centres undefined)	200	half-life at 5 µM [2]: 0.95 h; half-life [3]: 0.6 h; bioavailability [4]: 4%; AUC [5]: 2.5 µM·h

Structure (SMILES)	EC50 [1] [nM]	further results
O=C(O)Cc1ccccc1OCCC1Oc2ccccc2N(CCCCCCCF)C1=O (centres undefined)	718	–
O=C(O)CCCCN1C(=O)C(CCOc2ccccc2CC(=O)O)Oc2ccccc21 (centres undefined)	> 5000	–
CCCCCCCCCCN1C(=O)C(CCOc2ccccc2CC(=O)O)Oc2ccccc21 (centres undefined)	1000	–
C/C(CCCCN1C(=O)C(CCOc2ccccc2CC(=O)O)Oc2ccccc21)=N\O (centres undefined)	10	half-life at 5 µM [2]: 2.47 h; half-life [3]: 4.2 h; bioavailability [4]: 16%; AUC [5]: 19.9 µM·h
COCCCCN1C(=O)[C@@H](CCOc2ccccc2CC(=O)O)Oc2ccccc21	274	half-life at 5 µM [2]: > 8.33 h; half-life [3]: 6.7 h; bioavailability [4]: 41%; AUC [5]: 88 µM·h
NC(=O)CCCCCN1C(=O)C(CCOc2ccccc2CC(=O)O)Oc2ccccc21 (centres undefined)	~5000	–
O=C(O)Cc1ccccc1OCCC1Oc2ccccc2N(CCCCCO)C1=O (centres undefined)	1000	–
NC(=O)CCCCN1C(=O)C(CCOc2ccccc2CC(=O)O)Oc2ccccc21 (centres undefined)	> 5000	–
CCCCCCCCN1C(=O)C(CCOc2ccccc2CC(=O)O)Oc2ccccc21 (centres undefined)	300	–
O=C(O)Cc1ccccc1OCCC1Oc2ccccc2N(CCCCCCF)C1=O (centres undefined)	117	half-life at 5 µM [2]: 1.27 h; half-life [3]: 16 h; bioavailability [4]: 100%; AUC [5]: 84 µM·h
CC(C)(C#N)CCCCN1C(=O)C(CCOc2ccccc2CC(=O)O)Oc2ccccc21 (centres undefined)	359	–
CNC(=O)CCCN1C(=O)C(CCOc2ccccc2CC(=O)O)Oc2ccccc21 (centres undefined)	> 5000	–
COCCCCN1C(=O)C(CCOc2ccccc2CC(=O)O)Oc2ccccc21 (centres undefined)	274	–
CCN1C(=O)C(CCOc2ccccc2CC(=O)O)Oc2ccccc21 (centres undefined)	> 5000	–
CC(C)N1C(=O)C(CCOc2ccccc2CC(=O)O)Oc2ccccc21 (centres undefined)	> 5000	–
CC(C)CCCCN1C(=O)C(CCOc2ccccc2CC(=O)O)Oc2ccccc21 (centres undefined)	79	–
CCCCCCCN1C(=O)C(CCOc2ccccc2CC(=O)O)Oc2ccccc21 (centres undefined)	234	–
CC(=O)CCCCCN1C(=O)C(CCOc2ccccc2CC(=O)O)Oc2ccccc21 (centres undefined)	264	–
CCCCCN1C(=O)C(CCOc2ccccc2CC(=O)O)Oc2ccccc21 (centres undefined)	243	–
CO/N=C(\C)CCCCN1C(=O)C(CCOc2ccccc2CC(=O)O)Oc2ccccc21 (centres undefined)	~5000	–
CCCCCCCCCN1C(=O)C(CCOc2ccccc2CC(=O)O)Oc2ccccc21 (centres undefined)	~5000	–
C=CCCCCN1C(=O)C(CCOc2ccccc2CC(=O)O)Oc2ccccc21 (centres undefined)	208	–
CCCN1C(=O)C(CCOc2ccccc2CC(=O)O)Oc2ccccc21 (centres undefined)	~5000	–
CCCCCCN1C(=O)C(CCOc2ccccc2CC(=O)O)Oc2ccccc21 (centres undefined)	100	half-life at 5 µM [2]: 0.883 h; AUC [6]: 406 µM·h; half-life [3]: 14 h; bioavailability [4]: 115%
CCCCCCN1C(=O)[C@@H](CCOc2ccccc2CC(=O)O)Oc2ccccc21	100	half-life at 5 µM [2]: 1.22 h; half-life [3]: 14.5 h; bioavailability [4]: 95%; AUC [5]: 327 µM·h
O=C(O)Cc1ccccc1OCC[C@@H]1Oc2ccccc2N(CCCCCCF)C1=O	570	–
